Assay results published in PubChem BioAssay (NCI).
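Compound exposure: 48 hours, 5 concentrations, 96-well plates. TGI denotes the concentration required for complete inhibition of growth.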 Where a SMILES comes first, the peptide text is derived from it. The star is where a group is joined. Cbz = O=C(OCc1ccccc1)*

Columns and labels:
Assay in all cases: NCI-60 cell line screen, 48 h
[1] = tested on: SK-MEL-28 melanoma
[2] = tested on: MDA-MB-435
[3] = tested on: T-47D breast
[4] = tested on: DU-145 prostate
[5] = tested on: 786-0 renal
[6] = tested on: HL-60(TB) leukemia
[7] = tested on: IGROV1 ovarian
[8] = tested on: KM12 colon
[9] = tested on: PC-3 prostate

SMILES	TGI [1] [µM]	TGI [2] [µM]	TGI [3] [µM]	TGI [4] [µM]	TGI [5] [µM]	TGI [6] [µM]	TGI [7] [µM]	TGI [8] [µM]	TGI [9] [µM]
COc1ccc(NS(=O)c2ccc(OC)cc2)cc1 (centres undefined)	> 100	> 100	82.8	> 100	> 100	> 100	99.4	24.1	
O=C1c2ccccc2-c2c1c(-c1ccccc1)c1n2C2(C(=O)c3ccccc3C2=O)C2C(=O)N(c3ccccc3)C(=O)C12 (centres undefined)	> 100	50.3	65.7	> 100	68.9		> 100	47.9	81.6
CC(=O)N1N=C(c2c(O)ccc3ccccc23)CC1c1ccc(Cl)cc1 (centres undefined)	74	51.9	> 100	> 100	> 100		63.9	29.9	68.9
O=C(/C=C(\O)c1ccc(Cl)cc1)C(=O)NN=C(c1ccccc1)c1ccccc1		> 100	> 100	> 100	> 100		> 100	> 100	> 100
COc1ccc2nc3ccc(OC)cc3c(SCC3CO3)c2c1 (centres undefined)	33.5	40	43.6		23.7			34.4	28.6
CN(C)/C=C/c1ccncc1	> 100	> 100	> 100	> 100	> 100		> 100	> 100	> 100
COc1ccc2c(c1)N=C1CSC(c3c(Cl)cccc3[N+](=O)[O-])N1C2 (centres undefined)	> 100	> 100	> 100		> 100	79.3	> 100	> 100	> 100
CCCCc1ccc(Nc2nc(N)c3ncn(COCCO)c3n2)cc1		51.2	91.6	> 100	65.4	> 100	60.8	> 100	
CC1SC(=O)SC1C (centres undefined)	> 100	> 100	> 100		> 100	> 100	> 100	> 100	> 100
O=C(Cc1ccccc1)NNc1nc(NNC(=O)c2ccncc2)nc(Nc2ccc(Cl)cc2)n1	> 10		> 10	> 10	> 10	> 10	> 10	> 10	
O=C(CN1CCOCC1)Nc1ccc2c(c1)C1Oc3ccccc3CC1CO2 (centres undefined)		> 100	> 100	> 100	> 100		> 100	> 100	> 100
COC(=O)CC1(O)C(/C=C/c2ccccc2)C(C(=O)OC)C(=O)C(C(=O)OC)C1C(=O)OC (centres undefined)	> 100	> 100		> 100	> 100	> 100	> 100	> 100	> 100
Cc1cc(C)c(NS(=O)c2cccc(Cl)c2)c(C)c1 (centres undefined)	> 100	> 100		> 100	> 100	> 100		> 100	> 100
O=S1c2ccccc2SCSc2ccccc21			> 100	> 100	> 100			> 100	> 100
CSC(=S)OC1C(CO[Si](C)(C)C(C)(C)C)OC2OC(C)(C)OC21 (centres undefined)	> 100	> 100		> 100	42		53.6	30.4	38.4
O=C(NCC(C(=O)OCc1ccccc1)C(=O)OCc1ccccc1)OCc1ccccc1	> 100	> 100		> 100	> 100		> 100	> 100	> 100
CC(C)(C)c1cc(C(=O)/C=C/c2ccc3c(c2)CCO3)cc(C(C)(C)C)c1O	> 100	0.91	> 100		11.2	5.53	> 100	3.66	4.8
CCOC(=O)C(CC(=O)OC)NC(=O)C(CC(=O)OC)NC(=O)C(CC(=O)OC)NC(=O)C(CC(=O)OC)NC(=O)OCc1ccccc1 (centres undefined) (Cbz-D(OMe)D(OMe)D(OMe)D(OMe)-OEt; configuration not given here)	> 100		> 100		> 100	> 100	> 100	> 100	> 100
O=CC1C[C@@H](N2C(=O)O[C@@H](c3ccccc3)[C@H]2c2ccccc2)[C@@H]1COCc1ccccc1 (some centres undefined)	40.4	51.4		35.7	31.2	56.7	35.4	> 100	43.1
Nc1cccc(C#Cc2cccc(C#Cc3cccc(N)n3)n2)n1		> 100	> 100	> 100	> 100		> 100	> 100	> 100
O=C(CC(C(=O)c1cccs1)c1ccsc1)c1ccco1 (centres undefined)	> 100	40.6	80.3	> 100	> 100	41.3	> 100	42.7	
